# Patent publication US5990144A, “4-aminoalkoxy-1,3-dihydrobenzoimidazol-2-one dopamine autoreceptor agonists” (American Home Products Corporation, priority 1998, dated 1999)
# How the values were obtained:
# [1] = molecular target: T1, D2 (dopamine autoreceptor) (Rattus norvegicus, UniProt P61169); test: Affinity for dopamine autoreceptor (D2 high-affinity agonist state), 3H-quinpirole binding, rat striatal brain tissue; details: read-out: IC50 (nM) D2 Quin.
# T1 construct: homogenized rat striatal brain tissue; from tissue; host or cells: rat striatal brain tissue (homogenate)
# Method: Affinity for the dopamine autoreceptor was established by a modification of the standard experimental test procedure of Seemen and Schaus, European Journal of Pharmacology 203: 105-109, 1991, wherein homogenized rat striatal brain tissue is incubated with ^3 H-quinpirole (Quin.) and various concentrations of test compound, filtered and washed and counted in a Betaplate scintillation counter.
# dopamine D-2 receptor = molecular target: T2, dopamine D-2 receptor (Rattus norvegicus, UniProt P61169); test: Affinity for dopamine D-2 receptor, 3H-spiroperidol (Spiper.) binding, homogenized limbic brain tissue; details: read-out: IC50 (nM) D2 Spiper
# T2 construct: homogenized limbic brain tissue; from tissue; host or cells: limbic brain tissue (homogenate)
# Method: High affinity for the dopamine D-2 receptor was established by the standard experimental test procedure of Fields, et al., Brain Res., 136, 578 (1977) and Yamamura et al., eds., Neurotransmitter Receptor Binding, Raven Press, N.Y. (1978) wherein homogenized limbic brain tissue is incubated with ^3 H-spiroperidol (Spiper.) and various concentrations of test compound, filtered and washed and shaken with Hydrofluor scintillation cocktail (National Diagnostics) and counted in a Packard 460 CD scintillation counter.
# T1 sequence (P61169 whole entry): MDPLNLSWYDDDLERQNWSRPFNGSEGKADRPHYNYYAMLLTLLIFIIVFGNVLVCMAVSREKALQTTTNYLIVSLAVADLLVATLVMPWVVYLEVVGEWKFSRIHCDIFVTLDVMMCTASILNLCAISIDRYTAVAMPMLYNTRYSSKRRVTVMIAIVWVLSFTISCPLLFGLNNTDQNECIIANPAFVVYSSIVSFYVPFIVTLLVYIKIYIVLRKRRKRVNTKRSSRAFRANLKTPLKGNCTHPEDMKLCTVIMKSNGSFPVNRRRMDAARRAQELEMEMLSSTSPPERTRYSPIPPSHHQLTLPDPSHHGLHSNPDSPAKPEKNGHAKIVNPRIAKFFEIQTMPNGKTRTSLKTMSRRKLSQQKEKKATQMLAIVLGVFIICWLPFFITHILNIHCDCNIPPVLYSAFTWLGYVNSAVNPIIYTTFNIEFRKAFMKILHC
# T2 sequence (P61169 whole entry): as above
SMILES,IC50 [1],IC50 (dopamine D-2 receptor)
"O=c1[nH]c2cccc(OCCNCc3ccccc3)c2[nH]1 [Example 1, 4-(2-Benzylamino-ethoxy)-1,3-dihydro-benzoimidazol-2-one]",0.51 nM,60.6 nM
"Cc1ccc(CNCCOc2cccc3[nH]c(=O)[nH]c23)cc1 [Example 2, 4-[2-(4-Methyl-benzylamino)-ethoxy]-1,3-dihydro-benzoimidazol-2-one]",0.29 nM,28.5 nM
"Cn1c(=O)[nH]c2cccc(OCCNCc3ccccc3)c21 [Example 3, 4(7)-(2-Benzylamino-ethoxy)-1-(3)-methyl-1,3-dihydro-benzoimidazol-2-one]",2.92 nM,1350 nM
"O=c1[nH]c2cccc(OCCCNCc3ccccc3)c2[nH]1 [Example 4, 4-(3-Benzylamino-propoxy)-1,3-dihydro-benzoimidazol-2-one]",126 nM,5980 nM
"O=c1[nH]c2cccc(OCCNCc3cccc4ccccc34)c2[nH]1 [Example 5, 4-{2-[(Naphthalen-1-ylmethyl)-amino]-ethoxy}-1,3-dihydro-benzoimidazol-2-one]",0.6 nM,38.7 nM
"CC(C)(C)c1ccc(CNCCOc2cccc3[nH]c(=O)[nH]c23)cc1 [Example 6, 4-[2-(4-tert-Butyl-benzylamino)-ethoxy]-1,3-dihydro-benzoimidazol-2-one]",0.81 nM,47.8 nM
"O=c1[nH]c2cccc(OCCNCc3cccs3)c2[nH]1 [Example 7, 4-{2-[(Thiophen-2-ylmethyl)-amino]-ethoxy}-1,3-dihydro-benzoimidazol-2-one]",0.51 nM,255 nM
"O=c1[nH]c2cccc(OCCNCc3ccc(Cl)cc3)c2[nH]1 [Example 8, 4-[2-(4-Chloro-benzylamino)-ethoxy]-1,3-dihydro-benzoimidazol-2-one]",0.3 nM,99.5 nM
"O=c1[nH]c2cc(Cl)cc(OCCNCc3ccccc3)c2[nH]1 [Example 9, 4-(2-Benzylamino-ethoxy)-6-chloro-1,3-dihydro-benzoimidazol-2-one]",0.48 nM,34.6 nM
"O=c1[nH]c2cc(Cl)cc(OCCNCc3cccs3)c2[nH]1 [Example 10, 6-Chloro-4-{2-[(thiophen-2-ylmethyl)-amino]-ethoxy}-1,3-dihydro-benzoimidazol-2-one]",0.47 nM,58 nM
"O=c1[nH]c2cc(Cl)cc(OCCNCc3ccsc3)c2[nH]1 [Example 11, 6-Chloro-4-{2-[(thiophen-3-ylmethyl)-amino]-ethoxy}-1,3-dihydro-benzoimidazol-2-one]",0.31 nM,67 nM
"O=c1[nH]c2cccc(OCCN3CCc4ccccc4C3)c2[nH]1 [Example 12, 4-[2-(2,3-Dihydro-1H-isoquinolin-2yl)-ethoxy]-1,3-dihydro-benzoimidazol-2-one]",12 nM,658 nM
"O=c1[nH]c2cccc(OCCNCCCc3ccccc3)c2[nH]1 [Example 13, 4-[2-(3-Phenyl-propylamine)-ethoxy]-1,3-dihydro-benzoimidazol-2-one]",0.3 nM,30 nM
